Reference: ChEMBL document CHEMBL1159260, “Muricatocins A and B, two new bioactive monotetrahydrofuran Annonaceous acetogenins from the leaves of Annona muricata” (J Nat Prod, 1995)
≈ marks a conversion by molar mass, not a printed value.

Tests used:
[1] = test system: MCF7; assay: Cytotoxicity against human MCF7 cells after 7 days by MTT assay; format: functional; conditions: MCF7, 168 h, read-out: ED50 (the source's name)
[2] = Toxicity against brine shrimp; format: organism-based; conditions: artemia, in vivo
[3] = test system: HT-29; assay: Cytotoxicity against human HT-29 cells after 7 days by MTT assay; format: functional; conditions: HT-29, 168 h, read-out: ED50 (the source's name)
[4] = test system: A549; assay: Cytotoxicity against human A549 cells after 7 days by MTT assay; format: functional; conditions: A549, 168 h, read-out: ED50 (the source's name)

| Structure (SMILES) | EC50 [1] [µg/mL] | LC50 [2] [µg/mL] | EC50 [3] [µg/mL] | EC50 [4] [µg/mL] |
| --- | --- | --- | --- | --- |
| CCCCCCCCCCCC[C@H](O)[C@H]1CC[C@H]([C@H](O)CC[C@H]2C[C@@H](CCCCC[C@@H](O)CC3=C[C@H](C)OC3=O)OC(C)(C)O2)O1 | 0.878 (≈ 1.34 µM) | 0.266 (≈ 0.407 µM) | > 1 | 0.00718 (≈ 0.011 µM) |
| CCCCCCCCCCCC[C@@H](O)[C@H]1CC[C@H]([C@H](O)CC[C@H]2C[C@@H](CCCCC[C@@H](O)CC3=C[C@H](C)OC3=O)OC(C)(C)O2)O1 | 0.165 (≈ 0.253 µM) | 0.206 (≈ 0.315 µM) | 0.508 (≈ 0.778 µM) | 0.00367 (≈ 0.00562 µM) |
| COc1cccc2c1C(=O)c1c(O)c3c(c(O)c1C2=O)C[C@@](O)(C(=O)CO)C[C@@H]3O[C@H]1C[C@H](N)[C@H](O)[C@H](C)O1 [DOXORUBICIN] | 0.142 (≈ 0.261 µM) |  |  | 0.00356 (≈ 0.00655 µM) |
| CCCCCCCCCCCC[C@@H](O)[C@H]1CC[C@H]([C@H](O)CC[C@H](O)C[C@H](O)CCCCC[C@@H](O)CC2=C[C@H](C)OC2=O)O1 [MURICATOCIN A] | 0.123 (≈ 0.201 µM) | 0.699 (≈ 1.14 µM) | 1.56 (≈ 2.55 µM) | 0.0755 (≈ 0.123 µM) |
| CCCCCCCCCCCC[C@H](O)[C@H]1CC[C@H]([C@H](O)CC[C@H](O)C[C@H](O)CCCCC[C@@H](O)CC2=C[C@H](C)OC2=O)O1 [MURICATOCIN B] | 0.103 (≈ 0.168 µM) | 0.557 (≈ 0.909 µM) | 1.66 (≈ 2.71 µM) | 0.334 (≈ 0.545 µM) |
